Test results taken from ChEMBL document CHEMBL2086335, “Three new 12-carbamoylated streptothricins from Streptomyces sp. I08A 1776” (2012).
≈ marks a conversion by molar mass, not a printed value.

Assays:
Format in all cases: functional
[1] = system: Escherichia coli; test: Antibacterial activity against Escherichia coli ATCC 25922 by microbroth dilution method
[2] = system: Morganella morganii; test: Antibacterial activity against multidrug-resistant Morganella morganii 07-09 by microbroth dilution method
[3] = system: Candida albicans; test: Antifungal activity against Candida albicans ATCC 10231 by microbroth dilution method
[4] = system: Mycobacterium tuberculosis; test: Antibacterial activity against Mycobacterium tuberculosis H37Rv by microbroth dilution method
[5] = system: Pseudomonas aeruginosa; test: Antibacterial activity against Pseudomonas aeruginosa ATCC 27853 by microbroth dilution method
[6] = system: Enterococcus faecalis; test: Antibacterial activity against Enterococcus faecalis ATCC 29212 by microbroth dilution method
[7] = system: Bacillus subtilis; test: Antibacterial activity against Bacillus subtilis ATCC 6633 by microbroth dilution method
[8] = system: Staphylococcus aureus; test: Antibacterial activity against Staphylococcus aureus ATCC 25923 by microbroth dilution method
[9] = system: Mycolicibacterium smegmatis; test: Antibacterial activity against Mycobacterium smegmatis MC2 155 by microbroth dilution method; details: str. MC2 155

NCCC[C@H](N)CC(=O)NCCC[C@H](N)CC(=O)N[C@@H]1[C@H](O)[C@@H](O)[C@@H](COC(N)=O)O[C@H]1/N=C1\N[C@@H]2[C@H](O)CNC(=O)[C@H]2N1
MIC [1]: > 256 µg/mL
MIC [2]: > 256 µg/mL
MIC [3]: 32 µg/mL (≈ 50.7 µM)
MIC [4]: 16 µg/mL (≈ 25.4 µM)
MIC [5]: > 256 µg/mL
MIC [6]: > 256 µg/mL
MIC [7]: 16 µg/mL (≈ 25.4 µM)
MIC [8]: > 256 µg/mL
MIC [9]: 64 µg/mL (≈ 101 µM)

CC(=O)N[C@@H](CCCNC(=O)C[C@@H](N)CCCN)CC(=O)N[C@@H]1[C@H](O)[C@@H](O)[C@@H](COC(N)=O)O[C@H]1/N=C1\N[C@@H]2[C@H](O)CNC(=O)[C@H]2N1
MIC [1]: > 256 µg/mL
MIC [2]: > 256 µg/mL
MIC [3]: > 256 µg/mL
MIC [4]: > 256 µg/mL
MIC [5]: > 256 µg/mL
MIC [6]: > 256 µg/mL
MIC [7]: 128 µg/mL (≈ 190 µM)
MIC [8]: > 256 µg/mL
MIC [9]: > 256 µg/mL

CC(=O)N[C@@H](CCCNC(=O)C[C@@H](N)CCCNC(=O)C[C@@H](N)CCCN)CC(=O)N[C@@H]1[C@H](O)[C@@H](O)[C@@H](COC(N)=O)O[C@H]1/N=C1\N[C@@H]2[C@H](O)CNC(=O)[C@H]2N1
MIC [1]: 64 µg/mL (≈ 79.9 µM)
MIC [2]: > 256 µg/mL
MIC [3]: > 256 µg/mL
MIC [4]: > 256 µg/mL
MIC [5]: > 256 µg/mL
MIC [6]: > 256 µg/mL
MIC [7]: 64 µg/mL (≈ 79.9 µM)
MIC [8]: > 256 µg/mL
MIC [9]: > 256 µg/mL

CC(=O)N[C@@H](CCCNC(=O)C[C@@H](N)CCCNC(=O)C[C@@H](N)CCCN)CC(=O)N[C@@H]1[C@H](O)[C@@H](O)[C@@H](COC(N)=O)O[C@H]1/N=C1\N[C@H]([C@H](O)CN)[C@@H](C(=O)O)N1
MIC [1]: > 256 µg/mL
MIC [2]: > 256 µg/mL
MIC [3]: > 256 µg/mL
MIC [4]: > 256 µg/mL
MIC [5]: > 256 µg/mL
MIC [6]: > 256 µg/mL
MIC [7]: > 256 µg/mL
MIC [8]: > 256 µg/mL
MIC [9]: > 256 µg/mL

CC(=O)N[C@@H](CCCNC(=O)C[C@@H](N)CCCNC(=O)C[C@@H](N)CCCN)CC(=O)N[C@@H]1[C@H](O)[C@@H](OC(N)=O)[C@@H](CO)O[C@H]1/N=C1\N[C@H]([C@H](O)CN)[C@@H](C(=O)O)N1
MIC [1]: 64 µg/mL (≈ 78.2 µM)
MIC [2]: > 256 µg/mL
MIC [3]: > 256 µg/mL
MIC [4]: > 256 µg/mL
MIC [5]: > 256 µg/mL
MIC [6]: > 256 µg/mL
MIC [7]: 64 µg/mL (≈ 78.2 µM)
MIC [8]: > 256 µg/mL
MIC [9]: > 256 µg/mL

NNC(=O)c1ccncc1 [ISONIAZID]
MIC [4]: 0.0625 µg/mL (≈ 0.456 µM)

C[C@H]1COc2c(N3CCN(C)CC3)c(F)cc3c(=O)c(C(=O)O)cn1c23.C[C@H]1COc2c(N3CCN(C)CC3)c(F)cc3c(=O)c(C(=O)O)cn1c23.O [LEVOFLOXACIN]
MIC [2]: 16 µg/mL
MIC [3]: > 256 µg/mL
MIC [4]: 0.5 µg/mL
MIC [5]: 0.25 µg/mL
MIC [6]: 0.5 µg/mL
MIC [7]: 0.12 µg/mL
MIC [8]: 0.12 µg/mL
MIC [9]: 1 µg/mL

CO[C@H]1/C=C/O[C@@]2(C)Oc3c(C)c(O)c4c(O)c(c(/C=N/N5CCN(C)CC5)c(O)c4c3C2=O)NC(=O)/C(C)=C\C=C\[C@H](C)[C@H](O)[C@@H](C)[C@@H](O)[C@@H](C)[C@H](OC(C)=O)[C@@H]1C [RIFAMPIN]
MIC [4]: 0.0625 µg/mL (≈ 0.0759 µM)

NCCC[C@H](N)CC(=O)NCCC[C@H](N)CC(=O)N[C@@H]1[C@H](O)[C@@H](OC(N)=O)[C@@H](CO)O[C@H]1NC1=N[C@@H]2C(=O)NC[C@@H](O)[C@H]2N1 [STREPTOTHRICIN E]
MIC [1]: 16 µg/mL (≈ 25.4 µM)
MIC [2]: 4 µg/mL (≈ 6.34 µM)
MIC [3]: 1 µg/mL (≈ 1.59 µM)
MIC [4]: 1 µg/mL (≈ 1.59 µM)
MIC [5]: 64 µg/mL (≈ 101 µM)
MIC [6]: 64 µg/mL (≈ 101 µM)
MIC [7]: 1 µg/mL (≈ 1.59 µM)
MIC [8]: 4 µg/mL (≈ 6.34 µM)
MIC [9]: 4 µg/mL (≈ 6.34 µM)
